Legend:
Conditions in all cases: 72 h
[1] = test system: ML-2
Summary of the method: (§1)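 Fifteen myeloid leukaemia cell lines were seeded in RPMI 1640 at a density titrated to the linear growth range. Each line went into 384-well plates with compounds acoustically pre-printed at five tenfold doses from 1 to 10,000 nM, in duplicate, and was incubated for 72 h at 37 °C with 5% CO2. Luminescent ATP viability was normalised to vehicle and to a positive control at 10 µM. The IC50 came from four-parameter log-logistic dose–response fits.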

[2] = test system: Mono-Mac-6
Summary of the method: as §1

[3] = test system: THP-1
Summary of the method: as §1

[4] = test system: K-562
Summary of the method: as §1

[5] = test system: KCL-22
Summary of the method: as §1

[6] = test system: LAMA-84
Summary of the method: as §1

[7] = test system: SHI-1
Summary of the method: as §1

[8] = test system: KU-812
Summary of the method: as §1

[9] = test system: MV4-11
Summary of the method: as §1

[10] = test system: HL-60
Summary of the method: as §1

[11] = test system: MOLM-13
Summary of the method: as §1

[12] = test system: KG-1
Summary of the method: as §1

[13] = test system: NOMO-1
Summary of the method: as §1

[14] = test system: HEL
Summary of the method: as §1

[15] = test system: BV-173
Summary of the method: as §1

[16] = test system: ML-2; assay: cell viability (% survival relative to DMSO control, bortezomib = 0%); higher = less cytotoxic
Summary of the method: (§2)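 Fifteen myeloid leukaemia cell lines were exposed to compounds at 1, 10, 100, 1000 or 10000 nM in 384-well plates for 72 h at 37 °C and 5% CO2. Viability was read by CellTiter-Glo luminescence and normalised, with vehicle as 100% and a 10 µM positive control as 0%. Values are percent survival averaged over duplicates.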

[17] = test system: Mono-Mac-6; assay: as above
Summary of the method: as §2

[18] = test system: THP-1; assay: as above
Summary of the method: as §2

[19] = test system: K-562; assay: as above
Summary of the method: as §2

[20] = test system: KCL-22; assay: as above
Summary of the method: as §2

[21] = test system: LAMA-84; assay: as above
Summary of the method: as §2

[22] = test system: SHI-1; assay: as above
Summary of the method: as §2

[23] = test system: KU-812; assay: as above
Summary of the method: as §2

[24] = test system: MV4-11; assay: as above
Summary of the method: as §2

[25] = test system: HL-60; assay: as above
Summary of the method: as §2

[26] = test system: MOLM-13; assay: as above
Summary of the method: as §2

[27] = test system: KG-1; assay: as above
Summary of the method: as §2

[28] = test system: NOMO-1; assay: as above
Summary of the method: as §2

[29] = test system: HEL; assay: as above
Summary of the method: as §2

[30] = test system: BV-173; assay: as above
Summary of the method: as §2

O=C([O-])CC(O)(C(=O)[O-])C(O)C(=O)[O-].[K+].[K+].[K+] (stereo not given) [Hydroxycitrate]
Conditions | IC50 (cell viability)
[1] | > 10 µM
[2] | > 10 µM
[3] | > 10 µM
[4] | > 10 µM
[5] | > 10 µM
[6] | > 10 µM
[7] | > 10000 nM
[8] | > 10 µM
[9] | > 10 µM
[10] | > 10 µM
[11] | > 10000 nM
[12] | > 10 µM
[13] | > 10 µM
[14] | > 10 µM
[15] | > 10 µM

cell viability [%]
Conditions | 1 nM | 10 nM | 100 nM | 1000 nM | 10000 nM
[16] | 90.3 | 95.8 | 78.1 | 104 | 97
[17] | 87.8 | 86.8 | 98 | 90.6 | 99.5
[18] | 83.8 | 93.4 | 97.5 | 97.7 | 105
[19] | 81.6 | 98.8 | 102 | 110 | 108
[20] | 86.5 | 109 | 104 | 84.7 | 88
[21] | 93 | 95.9 | 115 | 93.8 | 96.4
[22] | 80.8 | 112 | 92 | 100 | 88.6
[23] | 94.4 | 98.4 | 105 | 97.3 | 92.4
[24] | 81.4 | 107 | 111 | 106 | 90.2
[25] | 55.8 | 96.6 | 92.9 | 75.4 | 103
[26] | 68.9 | 104 | 99.4 | 89.5 | 92.5
[27] | 80 | 94.5 | 93.6 | 102 | 91.5
[28] | 83.1 | 101 | 99.1 | 95.8 | 102
[29] | 79.6 | 98.2 | 112 | 95.1 | 99.6
[30] | 80.2 | 95.7 | 89.1 | 104 | 105

O=C(O)CC[N+](=O)[O-] [3-nitropropionic acid]
Conditions | IC50 (cell viability)
[1] | > 10 µM
[2] | > 10 µM
[3] | > 10 µM
[4] | 3.64 µM
[5] | > 10 µM
[6] | > 10 µM
[7] | 2940 nM
[8] | > 10 µM
[9] | 3.17 µM
[10] | 4.69 µM
[11] | 2870 nM
[12] | > 10 µM
[13] | > 10 µM
[14] | > 10 µM
[15] | > 10 µM

cell viability [%]
Conditions | 1 nM | 10 nM | 100 nM | 1000 nM | 10000 nM
[16] | 104 | 107 | 107 | 102 | 87
[17] | 102 | 93.6 | 101 | 97.4 | 104
[18] | 88.2 | 96.7 | 99.1 | 86.5 | 92.2
[19] | 112 | 120 | 89.7 | 95 | 10.5
[20] | 73.9 | 101 | 98.3 | 123 | 81
[21] | 104 | 103 | 98.6 | 97.5 | 103
[22] | 90.7 | 120 | 97.5 | 92.9 | 3.76
[23] | 95.5 | 103 | 99.8 | 99.2 | 88.1
[24] | 105 | 115 | 87.2 | 99.5 | 0.752
[25] | 52.3 | 157 | 104 | 108 | 14.7
[26] | 68.7 | 122 | 110 | 94 | 0.718
[27] | 99 | 91.2 | 97.3 | 97.3 | 104
[28] | 94.8 | 93.2 | 101 | 104 | 93.4
[29] | 92.8 | 116 | 117 | 98.8 | 104
[30] | 93.7 | 93.5 | 106 | 114 | 93.7

From the supplement of paper PMC8671470
